Reference: ChEMBL document CHEMBL1146698, “Phe*-Ala-based pentapeptide mimetics are BACE inhibitors: P2 and P3 SAR” (Bioorg Med Chem Lett, 2004)

Experiments:
Beta-secretase 2 = target: T1, Beta-secretase 2 (Homo sapiens, UniProt Q9Y5Z0); test: Selectivity tested against Beta-secretase 2 (BACE) in human
T1 sequence (Q9Y5Z0 whole entry): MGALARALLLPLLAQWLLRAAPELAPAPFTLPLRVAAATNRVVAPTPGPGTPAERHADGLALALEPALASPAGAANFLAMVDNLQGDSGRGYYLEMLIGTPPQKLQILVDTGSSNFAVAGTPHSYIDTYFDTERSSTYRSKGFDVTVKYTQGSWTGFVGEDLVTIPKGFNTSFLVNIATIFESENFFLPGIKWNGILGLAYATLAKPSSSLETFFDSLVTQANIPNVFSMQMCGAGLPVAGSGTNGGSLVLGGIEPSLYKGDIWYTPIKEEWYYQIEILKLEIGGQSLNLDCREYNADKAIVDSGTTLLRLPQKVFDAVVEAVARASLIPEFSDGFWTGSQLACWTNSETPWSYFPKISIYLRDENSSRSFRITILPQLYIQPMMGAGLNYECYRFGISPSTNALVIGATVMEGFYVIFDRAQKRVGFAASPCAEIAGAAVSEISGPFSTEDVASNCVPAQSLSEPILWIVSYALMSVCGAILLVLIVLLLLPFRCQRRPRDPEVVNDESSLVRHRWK

Beta-secretase 1 = Beta-secretase 1 (Homo sapiens, UniProt P56817); test: In vitro inhibition of Beta-secretase-1 in HEK293 (Human Embryonic Kidney) cell line.; assay type: cell-based
HEK293 = test: In vitro inhibitory activity against beta-amyloid peptide (Abeta) in HEK293/APP751swe cells; assay type: functional, cell-based; conditions: Homo sapiens

Chain of Beta-secretase 1 (P56817 whole entry): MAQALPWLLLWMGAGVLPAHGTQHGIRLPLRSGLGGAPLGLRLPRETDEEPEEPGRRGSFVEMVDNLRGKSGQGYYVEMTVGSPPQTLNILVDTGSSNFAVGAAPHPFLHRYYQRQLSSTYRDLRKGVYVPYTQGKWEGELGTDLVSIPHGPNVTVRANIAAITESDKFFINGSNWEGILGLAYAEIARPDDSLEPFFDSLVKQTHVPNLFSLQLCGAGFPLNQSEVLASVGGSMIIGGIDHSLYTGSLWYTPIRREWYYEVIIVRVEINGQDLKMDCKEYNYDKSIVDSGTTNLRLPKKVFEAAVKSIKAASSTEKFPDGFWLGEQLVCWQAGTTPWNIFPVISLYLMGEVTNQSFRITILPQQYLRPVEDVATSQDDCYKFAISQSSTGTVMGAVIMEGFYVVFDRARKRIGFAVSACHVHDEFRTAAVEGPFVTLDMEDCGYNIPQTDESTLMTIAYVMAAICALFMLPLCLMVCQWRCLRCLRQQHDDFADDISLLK

Row | IC50 (Beta-secretase 2) [nM] | IC50 (Beta-secretase 1) [nM] | Compound | IC50 (HEK293) [nM]
1 | 500 | – | CSCC[C@H](NC(=O)[C@@H](NC(=O)OC(C)(C)C)C(C)C)C(=O)N[C@@H](CC(C)C)[C@@H](O)C[C@@H](C)C(=O)N[C@H](C(=O)NCc1ccccc1)C(C)C | –
2 | – | 28 | CSCC[C@H](NC(=O)[C@@H](NC(=O)OC(C)(C)C)C(C)C)C(=O)N[C@@H](Cc1ccccc1)[C@@H](O)C[C@@H](C)C(=O)N[C@H](C(=O)NCc1ccccc1)C(C)C | 22000
3 | – | 42 | CC[C@@H](C)[C@H](NC(=O)OC(C)(C)C)C(=O)N[C@@H](C)C(=O)N[C@@H](Cc1ccccc1)[C@@H](O)CC(C)C(=O)NC(C(=O)NCc1ccncc1)C(C)C (single isomer, unassigned) | 410
4 | – | 1060 | CC(C[C@H](O)[C@H](Cc1ccccc1)NC(=O)C(C)NC(=O)[C@@H](NC(=O)OC(C)(C)C)C(C)C)C(=O)NC(C(=O)NCc1ccncc1)C(C)C (single isomer, unassigned) | 48000
5 | – | 419 | CC(C[C@H](O)[C@H](Cc1ccccc1)NC(=O)[C@H](C)NC(=O)[C@H](CCCC(F)(F)F)NC(=O)OC(C)(C)C)C(=O)NC(C(=O)NCc1ccncc1)C(C)C (single isomer, unassigned) | 13400
6 | – | 63 | CC(C)C[C@H](NC(=O)OC(C)(C)C)C(=O)N[C@@H](C)C(=O)N[C@@H](Cc1ccccc1)[C@@H](O)CC(C)C(=O)NC(C(=O)NCc1ccncc1)C(C)C (single isomer, unassigned) | 860
7 | – | 70 | CSCC[C@H](NC(=O)[C@@H](NC(=O)OC(C)(C)C)C(C)C)C(=O)N[C@@H](Cc1ccccc1)[C@@H](O)CC(C)C(=O)NC(C(=O)NCc1ccncc1)C(C)C (single isomer, unassigned) | 1700
8 | – | 127 | COCC[C@H](NC(=O)[C@@H](NC(=O)OC(C)(C)C)C(C)C)C(=O)N[C@@H](Cc1ccccc1)[C@@H](O)CC(C)C(=O)NC(C(=O)NCc1ccncc1)C(C)C (single isomer, unassigned) | 2900
9 | – | 75 | CC[C@H](NC(=O)OC(C)(C)C)C(=O)N[C@@H](C)C(=O)N[C@@H](Cc1ccccc1)[C@@H](O)CC(C)C(=O)NC(C(=O)NCc1ccncc1)C(C)C (single isomer, unassigned) | 2800
10 | – | 41 | CCC[C@H](NC(=O)OC(C)(C)C)C(=O)N[C@@H](C)C(=O)N[C@@H](Cc1ccccc1)[C@@H](O)CC(C)C(=O)NC(C(=O)NCc1ccncc1)C(C)C (single isomer, unassigned) | 1400
11 | – | 60 | CCC[C@H](NC(=O)OC(C)(C)C)C(=O)N[C@@H](CCSC)C(=O)N[C@@H](Cc1ccccc1)[C@@H](O)CC(C)C(=O)NC(C(=O)NCc1ccncc1)C(C)C (single isomer, unassigned) | 990
12 | – | 2530 | CC(C[C@H](O)[C@H](Cc1ccccc1)NC(=O)[C@H](C)NC(=O)[C@H](CN(C)C)NC(=O)OC(C)(C)C)C(=O)NC(C(=O)NCc1ccncc1)C(C)C (single isomer, unassigned) | –
13 | – | 45 | CC(C[C@H](O)[C@H](Cc1ccccc1)NC(=O)[C@H](C)NC(=O)[C@H](CC(F)F)NC(=O)OC(C)(C)C)C(=O)NC(C(=O)NCc1ccncc1)C(C)C (single isomer, unassigned) | 400
14 | – | 89000 | CC(C[C@H](O)[C@H](Cc1ccccc1)NC(=O)[C@H](C)NC(=O)[C@H](CCN(C)C)NC(=O)OC(C)(C)C)C(=O)NC(C(=O)NCc1ccncc1)C(C)C (single isomer, unassigned) | –
15 | – | 82 | CC(C[C@H](O)[C@H](Cc1ccccc1)NC(=O)[C@H](C)NC(=O)[C@@H](NC(=O)OC(C)(C)C)C(C)C)C(=O)NC(C(=O)NCc1ccncc1)C(C)C (single isomer, unassigned) | 2100
16 | – | 705 | COCC[C@H](NC(=O)OC(C)(C)C)C(=O)N[C@@H](C)C(=O)N[C@@H](Cc1ccccc1)[C@@H](O)CC(C)C(=O)NC(C(=O)NCc1ccncc1)C(C)C (single isomer, unassigned) | –
17 | – | 118 | COC[C@H](NC(=O)OC(C)(C)C)C(=O)N[C@@H](C)C(=O)N[C@@H](Cc1ccccc1)[C@@H](O)CC(C)C(=O)NC(C(=O)NCc1ccncc1)C(C)C (single isomer, unassigned) | 4990
18 | – | 281 | CC(C[C@H](O)[C@H](Cc1ccccc1)NC(=O)[C@H](C)NC(=O)[C@H](CC(F)(F)C(F)F)NC(=O)OC(C)(C)C)C(=O)NC(C(=O)NCc1ccncc1)C(C)C (single isomer, unassigned) | 1620
